Results reported in ChEMBL document CHEMBL1201862, “PubChem BioAssay data set” (2004).
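In this assay, cells in 96-well plates receive the compound at five concentrations for 48 hours. Endpoints are linearly interpolated between the surrounding concentrations. GI50: concentration for 50% inhibition of growth.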 The source made the active and inactive calls. Rule as the data show it: active = GI50 up to about 1.1 µM and inactive = higher.

What was measured:
Assay in all cases: inhibition of tumour cell growth, NCI panel, 48 h
786-0 = test system: 786-0
A498 = test system: A498
A549 = test system: A549
ACHN = test system: ACHN
CAKI-1 = test system: CAKI-1
CCRF-CEM = test system: CCRF-CEM
COLO 205 = test system: COLO 205
DLD-1 = test system: DLD-1
DMS-114 = test system: DMS-114
DMS-273 = test system: DMS-273
EKVX = test system: EKVX
HCC 2998 = test system: HCC 2998
HCT-116 = test system: HCT-116
HCT-15 = test system: HCT-15
HL-60 = test system: HL-60
HOP-18 = test system: HOP-18
HOP-62 = test system: HOP-62
HOP-92 = test system: HOP-92
HT-29 = test system: HT-29
IGROV-1 = test system: IGROV-1
K562 = test system: K562
KM-20L2 = test system: KM-20L2
KM12 = test system: KM12
LOX IMVI = test system: LOX IMVI
LXFL 529 = test system: LXFL 529
M14 = test system: M14
MOLT-4 = test system: MOLT-4
Malme-3M = test system: Malme-3M
NCI-H226 = test system: NCI-H226
NCI-H23 = test system: NCI-H23
NCI-H460 = test system: NCI-H460
NCI-H522 = test system: NCI-H522
OVCAR-3 = test system: OVCAR-3
OVCAR-5 = test system: OVCAR-5
OVCAR-8 = test system: OVCAR-8
RPMI-8226 = test system: RPMI-8226
RXF 393 = test system: RXF 393
RXF 631 = test system: RXF 631
SF-268 = test system: SF-268
SF-295 = test system: SF-295
SF-539 = test system: SF-539
SK-MEL-28 = test system: SK-MEL-28
SK-MEL-2 = test system: SK-MEL-2
SK-MEL-5 = test system: SK-MEL-5
SK-OV-3 = test system: SK-OV-3
SN12C = test system: SN12C
SNB-19 = test system: SNB-19
SNB-75 = test system: SNB-75
SNB-78 = test system: SNB-78
SR = test system: SR
SW-620 = test system: SW-620
TK-10 = test system: TK-10
U-251 = test system: U-251
UACC-257 = test system: UACC-257
UACC-62 = test system: UACC-62
UO-31 = test system: UO-31
XF498 = test system: XF498
M19-MEL = test system: M19-MEL
OVCAR-4 = test system: OVCAR-4

Measured: GI50

NC(=O)OCC(COc1ccc(Cl)cc1)OC(=O)c1cc([N+](=O)[O-])cc([N+](=O)[O-])c1 (stereo not drawn)
33.5 µM: HCT-15
inactive: 786-0 41.6 µM | A498 > 100 µM | A549 > 100 µM | ACHN > 100 µM | CAKI-1 > 100 µM | CCRF-CEM 97.3 µM | COLO 205 39 µM | DLD-1 55.2 µM | DMS-114 35.1 µM | DMS-273 > 100 µM | EKVX > 100 µM | HCC 2998 > 100 µM | HCT-116 35.8 µM | HL-60 > 100 µM | HOP-18 > 100 µM | HOP-62 > 100 µM | HOP-92 > 100 µM | HT-29 > 100 µM | IGROV-1 > 100 µM | K562 37.2 µM | KM-20L2 > 100 µM | KM12 > 100 µM | LOX IMVI 17.9 µM | LXFL 529 > 100 µM | M14 > 100 µM | MOLT-4 > 100 µM | Malme-3M > 100 µM | NCI-H226 > 100 µM | NCI-H23 > 100 µM | NCI-H460 40.6 µM | NCI-H522 79.3 µM | OVCAR-3 > 100 µM | OVCAR-5 > 100 µM | OVCAR-8 > 100 µM | RPMI-8226 > 100 µM | RXF 393 > 100 µM | RXF 631 > 100 µM | SF-268 > 100 µM | SF-295 > 100 µM | SF-539 > 100 µM | SK-MEL-28 > 100 µM | SK-MEL-2 71.6 µM | SK-MEL-5 > 100 µM | SK-OV-3 > 100 µM | SN12C > 100 µM | SNB-19 > 100 µM | SNB-75 > 100 µM | SNB-78 > 100 µM | SR > 100 µM | SW-620 13.2 µM | TK-10 > 100 µM | U-251 > 100 µM | UACC-257 > 100 µM | UACC-62 > 100 µM | UO-31 > 100 µM | XF498 58.2 µM

Cn1ncc2ccc3[nH]c4ccccc4c(=O)c3c21
22.9 µM: HCT-15
inactive: 786-0 36.5 µM | A498 22.4 µM | A549 20.2 µM | ACHN 22.6 µM | CAKI-1 23.4 µM | CCRF-CEM 38.3 µM | COLO 205 26.4 µM | DLD-1 27.5 µM | DMS-114 35.8 µM | DMS-273 28.6 µM | EKVX 42 µM | HCC 2998 31.4 µM | HCT-116 24.9 µM | HL-60 27.9 µM | HOP-18 58.5 µM | HOP-62 26.5 µM | HOP-92 37.8 µM | HT-29 35 µM | IGROV-1 39.9 µM | K562 31.6 µM | KM-20L2 33.8 µM | KM12 38.3 µM | LOX IMVI 18.7 µM | LXFL 529 30 µM | M14 39.2 µM | M19-MEL 23.2 µM | MOLT-4 28.9 µM | Malme-3M 30.1 µM | NCI-H226 11.6 µM | NCI-H23 20.6 µM | NCI-H460 28.7 µM | NCI-H522 17.5 µM | OVCAR-3 37.3 µM | OVCAR-4 23.9 µM | OVCAR-5 33.6 µM | OVCAR-8 28.1 µM | RPMI-8226 22.5 µM | RXF 393 14.7 µM | RXF 631 21.8 µM | SF-268 28.4 µM | SF-295 34.8 µM | SK-MEL-28 36.3 µM | SK-MEL-2 33.1 µM | SK-MEL-5 17.5 µM | SK-OV-3 50.7 µM | SN12C 28.2 µM | SNB-19 38.3 µM | SNB-75 19.9 µM | SNB-78 27.7 µM | SR 29.9 µM | SW-620 26.2 µM | TK-10 21.1 µM | U-251 15.7 µM | UACC-257 31 µM | UACC-62 16.9 µM | UO-31 15 µM

CCCCCCCCCCC(=O)CCCCCCC(=O)O
13.5 µM: HCT-15
inactive: 786-0 18.8 µM | A498 20.1 µM | A549 15.3 µM | ACHN 21.5 µM | CAKI-1 30.5 µM | CCRF-CEM 19.5 µM | COLO 205 15.4 µM | DLD-1 19 µM | DMS-114 20.3 µM | DMS-273 19.3 µM | EKVX 31.8 µM | HCC 2998 17.1 µM | HCT-116 13.8 µM | HL-60 4.23 µM | HOP-18 16.9 µM | HOP-62 25.4 µM | HOP-92 16.9 µM | HT-29 18.5 µM | IGROV-1 19.2 µM | K562 7.33 µM | KM12 15.5 µM | LOX IMVI 15.7 µM | LXFL 529 18.2 µM | M14 20.5 µM | M19-MEL 27 µM | MOLT-4 15.1 µM | Malme-3M 20.8 µM | NCI-H226 32.8 µM | NCI-H23 30.1 µM | NCI-H460 16.5 µM | NCI-H522 21.4 µM | OVCAR-3 18.2 µM | OVCAR-4 45.6 µM | OVCAR-5 16.3 µM | OVCAR-8 17.8 µM | RPMI-8226 13.4 µM | RXF 393 36.3 µM | RXF 631 19.9 µM | SF-268 50.5 µM | SF-295 21.5 µM | SF-539 18.1 µM | SK-MEL-28 40 µM | SK-MEL-2 25.8 µM | SK-MEL-5 15.5 µM | SK-OV-3 53.8 µM | SN12C 27.3 µM | SNB-19 42.1 µM | SNB-75 29.6 µM | SNB-78 69.8 µM | SR 18.2 µM | SW-620 22.4 µM | TK-10 32.1 µM | U-251 20.7 µM | UACC-257 82.6 µM | UACC-62 17.9 µM | UO-31 23.7 µM | XF498 24.3 µM

N#CC(C#N)=CSc1ccccc1
inactive: 786-0 16.7 µM | A549 19.6 µM | ACHN 30.5 µM | CAKI-1 26.2 µM | CCRF-CEM 1.52 µM | COLO 205 24.5 µM | DLD-1 24 µM | DMS-114 17.7 µM | DMS-273 21.4 µM | EKVX 48.2 µM | HCT-116 23 µM | HL-60 11.9 µM | HOP-18 > 100 µM | HOP-62 55 µM | HOP-92 50.2 µM | HT-29 28.6 µM | IGROV-1 17.3 µM | K562 80.7 µM | KM-20L2 32.7 µM | KM12 19.7 µM | LOX IMVI 12.6 µM | LXFL 529 24.3 µM | M14 22.9 µM | MOLT-4 13.2 µM | NCI-H226 19.5 µM | NCI-H23 57.4 µM | NCI-H460 34 µM | NCI-H522 11.8 µM | OVCAR-3 34.4 µM | OVCAR-4 47 µM | OVCAR-5 26.3 µM | OVCAR-8 17.8 µM | RPMI-8226 48 µM | RXF 393 17.2 µM | RXF 631 20.6 µM | SF-268 13.4 µM | SF-295 35 µM | SF-539 20 µM | SK-MEL-28 23.8 µM | SK-MEL-2 18.7 µM | SK-MEL-5 28.5 µM | SK-OV-3 59 µM | SN12C 19.6 µM | SNB-19 60 µM | SNB-75 24.1 µM | SR 7.6 µM | SW-620 32.4 µM | TK-10 38 µM | U-251 16.5 µM | UACC-257 46.2 µM | UACC-62 24.2 µM | UO-31 13.3 µM | XF498 53.7 µM
22.1 µM: HCT-15

COc1ccc(/C(C)=N/NC(N)=S)c(OC)c1
inactive: 786-0 > 100 µM | A498 > 100 µM | A549 > 100 µM | ACHN > 100 µM | CAKI-1 > 100 µM | CCRF-CEM > 100 µM | COLO 205 > 100 µM | DLD-1 > 100 µM | DMS-114 97.1 µM | EKVX 63.4 µM | HCC 2998 > 100 µM | HCT-116 > 100 µM | HL-60 51.3 µM | HOP-18 > 100 µM | HOP-62 > 100 µM | HOP-92 > 100 µM | HT-29 > 100 µM | IGROV-1 > 100 µM | K562 > 100 µM | KM-20L2 > 100 µM | KM12 > 100 µM | LOX IMVI > 100 µM | LXFL 529 > 100 µM | M14 > 100 µM | M19-MEL > 100 µM | MOLT-4 > 100 µM | Malme-3M > 100 µM | NCI-H226 > 100 µM | NCI-H23 > 100 µM | NCI-H460 > 100 µM | NCI-H522 18.4 µM | OVCAR-3 > 100 µM | OVCAR-5 > 100 µM | OVCAR-8 > 100 µM | RPMI-8226 > 100 µM | RXF 393 > 100 µM | RXF 631 > 100 µM | SF-268 > 100 µM | SF-295 > 100 µM | SF-539 > 100 µM | SK-MEL-28 > 100 µM | SK-MEL-2 > 100 µM | SK-MEL-5 > 100 µM | SK-OV-3 > 100 µM | SN12C > 100 µM | SNB-19 > 100 µM | SNB-75 > 100 µM | SNB-78 > 100 µM | SR > 100 µM | SW-620 43.3 µM | TK-10 > 100 µM | U-251 49.1 µM | UACC-257 > 100 µM | UACC-62 > 100 µM | UO-31 > 100 µM | XF498 > 100 µM
> 100 µM: HCT-15
